The text below walks through data of US20190134145A1, “METHOD FOR TREATING COGNITIVE DYSFUNCTION” (ARIZONA BOARD OF REGENTS ON BEHALF OF THE UNIVERSITY OF …, priority 2013, published 2019).

The test system of one assay is Paraventricular neurons. The assay can be described thus: Reactive oxygen species production (DHE/ethidium fluorescence) in neurons challenged with aldosterone. In kind it is cell-based, SD rats. As to conditions: mean±SE. Here is the method: Paraventricular neurons were isolated from 22 day old female SD rats, dissociated and cultured on round coverslips and maintained in HBSS media for at least 48 hours prior to visualization by confocal microscopy. All cells were pre-incubated in 10 nM ALDO for 48 hours and then 1.0 μM Ang-(1-7) or 1.0 μM Ang-(1-7)+10.0 μM […] for 2 hours prior to testing with acute 1.0 μM Aldo. To measure ROS, changes in the ethidium fluorescence were measured which is directly proportional to the oxidation of dihydroethidium (DHE) by ROS. The cells were loaded with DHE (20 μM) added to the cell culture media for 1 h and then placed in a chamber for microscopic visualization of fluorescence. One-way ANOVAs for the experimental groups response to acute Aldo was determined. After establishing a significant ANOVA, post-hoc analyses were performed with Tukey multiple comparison tests between pairs of mean change scores. All data are expressed as means±SE. Statistical significance was set at P<0.05. Perfusion with 1.0 μM ALDO increased ROS (D=113.4+28%) in the PVN neurons. […] Pre-incubation in Ang-(1-7)+[…], restored the ALDO increase in ROS (Delta=105.9+9%). Change in ROS production was standardized relative to control state prior to ALDO treatment during ACSF incubation. ANOVA followed by Tukey's post hoc test was used for statistical comparisons between control and ALDO treatment. […]

Assay [1] deals with CHF mice. The assay can be described thus: Ejection fraction by echocardiography in CHF mice. Type of assay: in vivo. As to conditions: systemic treatment 50 mcg/kg/hr subcutaneously. On the procedure: Myocardial infarction and subsequent CHF was induced by ligation of the left coronary artery. By week 4 and week 8 post MI, CHF mice (n=15) had approximately 50 and 70% decline in ejection fraction as measured by echocardiography. For the object recognition SOR test at 8 weeks post MI, discrimination ratios were calculated from the time spent exploring the novel versus familiar object during the test phase. […] At 8 weeks post MI, a subgroup of CHF mice (n=6) and controls (n=4) were given 50 mcg/kg/hr Angiotensin (1-7) or saline subcutaneously for 4 weeks and then cognitive function was retested.
(§1) In addition, the invention provides a preclinical animal model of cardiovascular disease and congestive heart failure induced cognitive dysfunction. A total of 26, male C57B1/6J mice were randomly assigned to the control group or cardiovascular disease and congestive heart failure group. Myocardial infarction was induced by ligation of the left coronary artery. By week 4 and week 8 post MI, cardiovascular disease and congestive heart failure mice (n=15) had approximately 50 and 70% decline in ejection fraction as measured by echocardiography. Mice were tested for changes in spatial learning memory via the Morris water task and object recognition via the standard spontaneous object recognition (SOR) task at 4 and 8 weeks post MI. […]

In assay [2] the test system is CHF mice. As to the kind of experiment: Spontaneous (novel) object recognition (SOR) test in mice with congestive heart failure after myocardial infarction. In kind it is in vivo. Particulars: CHF mice (n=6), 50 mcg/kg/hr subcutaneously from 8 weeks post MI, after 3 weeks of treatment; controls +0.25±0.2, CHF+saline −0.21±0.1. On the procedure: Mice were 12 weeks post MI or sham surgery. Six mice were MI+Ang(1-7); three mice were MI+saline; and four mice were Sham+Ang (1-7). Alzet pumps with either Ang(1-7) or saline were implanted sq 3 weeks prior to NOR test. Novel object recognition test was performed 3 weeks post pump implant. Data shown are 1st 2 min of “test phase” DRatio=(t novel−t familiar)/(t novel+t familiar). A positive score indicates more time spent with the novel object, a negative score indicates more time spent with the familiar object, and a zero score indicates a null preference. *=p<0.05, #=p<0.05. ANOVA+posthoc Turkey test.
Myocardial infarction and subsequent CHF was induced by ligation of the left coronary artery. By week 4 and week 8 post MI, CHF mice (n=15) had approximately 50 and 70% decline in ejection fraction as measured by echocardiography. For the object recognition SOR test at 8 weeks post MI, discrimination ratios were calculated from the time spent exploring the novel versus familiar object during the test phase. […]
In addition, the invention provides a preclinical animal model of cardiovascular disease and congestive heart failure induced cognitive dysfunction. […] By week 4 and week 8 post MI, cardiovascular disease and congestive heart failure mice (n=15) had approximately 50 and 70% decline in ejection fraction as measured by echocardiography. […]

For assay [3], the system named is CHF mice. As to the kind of experiment: Morris water maze task (spatial memory) in mice with congestive heart failure after myocardial infarction. In kind it is in vivo. Particulars: 50 mcg/kg/hr subcutaneously for 4 weeks from 8 weeks post MI, first day of testing. Here is the method:
Prior to MI, the controls and CHF mice groups performed similarly on the Morris water task. Myocardial infarction and subsequent CHF was induced by ligation of the left coronary artery. By week 4 and week 8 post MI, CHF mice had approximately 50 and 70% decline in ejection fraction as measured by echocardiography. […] Animals were tested over 4 days with 6 spatial trials per day.
as §1, with “MI. At 8 weeks post MI, a subgroup of cardiovascular disease and congestive heart failure mice (n=6) and the control mice (n=4) were given 50 mcg/kg/hr Angiotensin (1-7) or saline subcutaneously for 4 weeks and then cognitive function was retested.” for “MI.”

Turning to `C[C@]12CCC(=O)C=C1CC[C@@H]1[C@@H]2[C@@H](O)C[C@]2(C=O)[C@@H](C(=O)CO)CC[C@@H]12` [ALDO, Aldosterone, reference compound], the “Change in ROS (D) relative to control state prior to ALDO treatment” value in the assay on Paraventricular neurons (PVN neurons, perfusion with 1.0 μM ALDO, no Ang-(1-7) pre-incubation) is on record as 113.4+28%.

In the case of “angiotensin-(1-7) (DRVYIHP; Angiotensin 1-7; UniProt P01019 25-31, looked up) [Ang-(1-7), endogenous peptide derived from Angiotensin II via ACE2]”, the Ejection fraction entry in the assay on CHF mice [1] was “not significantly impacted”. In addition, in the assay with CHF mice [2], the SOR discrimination ratio result is on record as “+0.43±0.1”. Moreover, the “Change in ROS (D) on ALDO, relative to control state prior to ALDO treatment” value in the assay with Paraventricular neurons (PVN neurons pre-incubated 2 hours in 1.0 μM Ang-(1-7), then acute 1.0 μM ALDO) is 6.4+27%. For the same compound, in the assay with CHF mice [3], the “Performance in Morris water maze task after treatment” value is on record as “significant improvement on object recognition memory on the first day of testing”.
